# Source: patent publication US11427548B2 (Arvinas Operations, Inc., priority 2015, dated 2022)
# Read-outs that look alike come from different tables or passages of the source.
# Target: T1, Androgen Receptor (Homo sapiens, UniProt P10275)
# T1 construct: endogenous in cells; host or cells: VCaP cells
# T1 sequence (P10275 1-920): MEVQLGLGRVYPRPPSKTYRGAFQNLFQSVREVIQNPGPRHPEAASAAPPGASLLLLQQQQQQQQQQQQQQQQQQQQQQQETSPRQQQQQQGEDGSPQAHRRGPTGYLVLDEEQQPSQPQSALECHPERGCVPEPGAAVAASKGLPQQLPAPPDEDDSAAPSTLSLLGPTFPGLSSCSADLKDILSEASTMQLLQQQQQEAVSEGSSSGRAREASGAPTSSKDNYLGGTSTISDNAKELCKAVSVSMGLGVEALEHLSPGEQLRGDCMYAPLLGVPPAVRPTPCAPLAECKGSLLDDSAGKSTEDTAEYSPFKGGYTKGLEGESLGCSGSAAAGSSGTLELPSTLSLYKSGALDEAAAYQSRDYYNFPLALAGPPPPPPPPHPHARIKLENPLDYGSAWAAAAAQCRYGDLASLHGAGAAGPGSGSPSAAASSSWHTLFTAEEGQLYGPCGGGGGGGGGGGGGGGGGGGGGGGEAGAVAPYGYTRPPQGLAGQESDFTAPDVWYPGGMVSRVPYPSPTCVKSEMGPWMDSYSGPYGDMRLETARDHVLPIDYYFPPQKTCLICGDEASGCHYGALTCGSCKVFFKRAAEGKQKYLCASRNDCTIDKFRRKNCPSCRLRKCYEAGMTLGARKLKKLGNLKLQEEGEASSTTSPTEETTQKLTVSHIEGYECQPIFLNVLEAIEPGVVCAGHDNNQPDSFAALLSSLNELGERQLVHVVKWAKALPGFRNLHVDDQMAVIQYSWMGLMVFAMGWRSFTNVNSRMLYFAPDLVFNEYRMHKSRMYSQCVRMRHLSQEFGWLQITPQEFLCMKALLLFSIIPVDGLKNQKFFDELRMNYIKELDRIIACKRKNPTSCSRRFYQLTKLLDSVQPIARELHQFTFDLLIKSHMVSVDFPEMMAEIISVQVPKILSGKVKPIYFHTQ
# Experiment: Androgen Receptor ELISA assay (PathScan AR ELISA) in VCaP cells: AR degradation, Dmax and DC50
# Type: cell-based
# In short: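 VCaP cells in phenol red-free RPMI with 5% charcoal-stripped FBS were grown at least 3 days, then given compound as 7 half-log doses in 0.1% DMSO with 0.1 nM R1881 for 24 h. Lysates went into a sandwich AR ELISA with TMB read at 450 nm.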
# [1] = VCaP cells; Table 36; read-out: VCaP DC50
# [2] = VCaP, VCaP cells; Table 36; read-out: VCaP Dmax (%)
# [3] = VCaP, highest percentage of Androgen Receptor degradation observed, VCaP cells (Table 32); read-out: VCaP Dmax (%)
# [4] = concentration that caused 50% Androgen Receptor degradation, VCaP cells (Table 32); read-out: VCaP DC50
# [5] = VCaP cells; Table 35; read-out: VCaP DC50
# [6] = VCaP, VCaP cells; Table 35; read-out: VCaP Dmax (%)
# [7] = read-out: VCaP DC50; concentration that caused 50% Androgen Receptor degradation, VCaP cells (Table 32)
compound,measurement,setting,value
"Cc1ncsc1-c1ccc(C(C)NC(=O)[C@@H]2C[C@@H](O)CN2C(=O)[C@@H](N)[C@@H](C)OCCCN(C)CCc2ccc(C(=O)N[C@H]3C(C)(C)[C@H](Oc4ccc(C#N)c(Cl)c4)C3(C)C)cc2)cc1 (stereo partly drawn) [Example 730, (2S,4R)-1-(O-(3-((4-(((1r,3r)-3-(3-chloro-4-cyanophenoxy)-2,2,4,4-tetramethylcyclobutyl)carbamoyl)phenethyl)(meth-yl)amino)propyl)-L-threonyl)-4-hydroxy-N-((S)-1-(4-(4-methylthiazol-5-yl)phenyl)ethyl)pyrrolidine-2-carboxamide]",DC50,[1],> 0.501 µM
same,Dmax,[2],< 25%
"CC(C)(C)[C@H](NC(=O)COCCCCCOc1ccc(C(=O)N[C@H]2C(C)(C)[C@H](Oc3ccc(C#N)c(Cl)c3)C2(C)C)cc1)C(=O)N1C[C@H](O)C[C@H]1C(=O)NCc1ccc(-c2cnco2)cc1 [Example 153, (2S,4R)-1-[(2S)-3,3-dimethyl-2-(2-{[5-(4-{[trans-3-(3-chloro-4-cyanophenoxy)-2,2,4,4-tetramethylcyclobutyl]carbamoyl}phen-oxy)pentyl]oxy}acetamido)butanoyl]-4-hydroxy-N-{[4-(1,3-oxazol-5-yl)phenyl]methyl}pyrrolidine-2-carboxamide]",Dmax,[3],> 71%
same,DC50,[4],< 0.05 µM
CC(C)(C)[C@H](NC(=O)COCCCCCNc1ccc(C(=O)N[C@H]2C(C)(C)[C@H](Oc3ccc(C#N)c(Cl)c3)C2(C)C)cc1)C(=O)N1C[C@H](O)C[C@H]1C(=O)NCc1ccc(-n2ccccc2=O)cc1 [Example 529],DC50,[5],< 0.05 µM
same,Dmax,[6],< 25%
"CO[C@@H]1C[C@@H](C(=O)N(C)Cc2ccc(-c3scnc3C)cc2)N(C(=O)[C@@H](N(C)C(=O)COCCCCCN(C)c2ccc(C(=O)N[C@H]3C(C)(C)[C@H](Oc4ccc(C#N)c(C(F)(F)F)c4)C3(C)C)nc2)C(C)(C)C)C1 [Example 718, N-((1r,3r)-3-(4-cyano-3-(trifluoromethyl)phenoxy)-2,2,4,4-tetramethylcyclobutyl)-5-((5-(2-(((S)-1-((2S,4R)-4-methoxy-2-(methyl(4-(4-methylthiazol-5-yl)benzyl)carbamoyl)pyrrolidin-1-yl)-3,3-dimethyl-1-oxobutan-2-yl)(methyl)amino)-2-oxoethoxy)pentyl)(meth-yl)amino)picolinamide]",DC50,[1],> 0.501 µM
same,Dmax,[2],< 25%
Cc1ncsc1-c1ccc(CNC(=O)[C@@H]2C[C@@H](O)CN2C(=O)[C@@H](NC(=O)COCCCOc2ccc(C(=O)N[C@H]3C(C)(C)[C@H](Oc4ccc(C#N)c(Cl)c4)C3(C)C)cc2)C(C)(C)C)cc1 [Example 387],Dmax,"VCaP, VCaP cells; Table 34; read-out: VCaP Dmax (%)",< 25%
"CC(C)(C)[C@H](NC(=O)COCCOCCCCOc1ccc(C(=O)N[C@H]2C(C)(C)[C@H](Oc3ccc(C#N)c(Cl)c3)C2(C)C)cc1)C(=O)N1C[C@H](O)C[C@H]1C(=O)NCc1ccc(-c2cncs2)cc1 [Example 162, (2S,4R)-1-[(2S)-3,3-dimethyl-2-(2-{2-[4-(4-{[trans-3-(3-chloro-4-cyanophenoxy)-2,2,4,4-tetramethylcyclobutyl]carbamoyl}phenoxy)butoxy]ethoxy}acetamido)butanoyl]-4-hydroxy-N-{[4-(1,3-thiazol-5-yl)phenyl]methyl}pyrrolidine-2-carboxamide]",Dmax,[3],> 71%
same,DC50,[4],< 0.05 µM
"CC(C)(C)[C@H](NC(=O)COCCCCOc1ccc(-c2ccc(N3C(=S)N(c4ccc(C#N)c(C(F)(F)F)c4)C(=O)C3(C)C)cc2)cc1)C(=O)N1C[C@H](O)C[C@H]1C(=O)NCc1ccc(-c2ocnc2Cl)cc1 [Example 105, (2S,4R)-N-{[4-(4-chloro-1,3-oxazol-5-yl)phenyl]methyl}-1-[(2S)-2-(2-{4-[4-(4-{3-[4-cyano-3-(trifluoromethyl)phenyl]-5,5-dimethyl-4-oxo-2-sulfanylideneimidazolidin-1-yl}phenyl)phenoxy]butoxy}acetamido)-3,3-dimethylbutanoyl]-4-hydroxypyrrolidine-2-carboxamide]",Dmax,"VCaP, read-out: VCaP Dmax (%)",51 to 70%
same,DC50,[7],0.051 to 0.5 µM
"Cc1ncsc1-c1ccc(CNC(=O)[C@@H]2C[C@@H](O)CN2C(=O)[C@@H](NC(=O)COCCCCOc2ccc(-c3ccc(N4C(=S)N(c5ccc(C#N)c(C(F)(F)F)c5)C(=O)C4(C)C)c(F)c3)cc2)C(C)(C)C)cc1 [Example 118, (2S,4R)-1-[(2S)-2-(2-{4-[4-(4-{3-[4-cyano-3-(trifluoromethyl)phenyl]-5,5-dimethyl-4-oxo-2-sulfanylideneimidazolidin-1-yl}-3-fluorophenyl)phen-oxy]butoxy}acetamido)-3,3-dimethylbutanoyl]-4-hydroxy-N-{[4-(4-methyl-1,3-thiazol-5-yl)phenyl]methyl}pyrrolidine-2-carboxamide]",Dmax,"VCaP, read-out: VCaP Dmax (%)",> 71%
same,DC50,[7],< 0.05 µM
"Cc1ncoc1-c1ccc(CNC(=O)[C@@H]2C[C@@H](O)CN2C(=O)[C@@H](NC(=O)COCc2ccc(Oc3ccc(C(=O)N[C@H]4C(C)(C)[C@H](Oc5ccc(C#N)c(Cl)c5)C4(C)C)cc3)cc2)C(C)(C)C)cc1 [Example 184, (2S,4R)-1-[(2S)-3,3-dimethyl-2-(2-{[4-(4-{[(1r,3r)-3-(3-chloro-4-cyanophenoxy)-2,2,4,4-tetramethylcyclobutyl]carbamoyl}phenoxy)phenyl]methoxy}acetamido)butanoyl]-4-hydroxy-N-{[4-(4-methyl-1,3-oxazol-5-yl)phenyl]methyl}pyrrolidine-2-carboxamide]",Dmax,[3],> 71%
same,DC50,[4],< 0.05 µM
"Cc1ncoc1-c1ccc(CNC(=O)[C@@H]2C[C@@H](O)CN2C(=O)[C@@H](NC(=O)COCCCCOc2ccc(-c3ccc(N4C(=S)N(c5ccc(C#N)c(Cl)c5)C(=O)C4(C)C)c(F)c3)cc2)C(C)(C)C)cc1 [Example 100, (2S,4R)-1-[(2S)-2-{2-[4-(4-{4-[3-(3-chloro-4-cyanophenyl)-5,5-dimethyl-4-oxo-2-sulfanylideneimidazolidin-1-yl]-3-fluorophenyl}phen-oxy)butoxy]acetamido}-3,3-dimethylbutanoyl]-4-hydroxy-N-{[4-(4-methyl-1,3-oxazol-5-yl)phenyl]methyl}pyrrolidine-2-carboxamide]",Dmax,"VCaP, read-out: VCaP Dmax (%)",> 71%
same,DC50,[7],< 0.05 µM
"CC(C)[C@@H](C(=O)N1C[C@H](O)C[C@H]1C(=O)NCc1ccc(C#N)cc1)N1Cc2ccc(N3CCN(CCCc4ccc(C(=O)N[C@H]5C(C)(C)[C@H](Oc6ccc(C#N)c(C(F)(F)F)c6)C5(C)C)cc4)CC3)cc2C1=O [Example 772, (2S,4R)-1-((S)-2-(6-(4-(3-(4-(((1r,3r)-3-(4-cyano-3-(trifluoromethyl)phenoxy)-2,2,4,4-tetramethylcyclobutyl)carbamoyl)phenyl)propyl)piperazin-1-yl)-1-oxoisoindolin-2-yl)-3-methylbutanoyl)-N-(4-cyanobenzyl)-4-hydroxypyrrolidine-2-carboxamide]",DC50,[1],> 0.501 µM
same,Dmax,[2],< 25%
Cc1nccn1-c1ccc([C@H](C)NC(=O)[C@@H]2C[C@@H](O)CN2C(=O)[C@@H](NC(=O)COCCNc2ccc(-c3ccc(C(=O)N[C@H]4C(C)(C)[C@H](Oc5ccc(C#N)c(Cl)c5)C4(C)C)cc3)cn2)C(C)(C)C)cc1 [Example 425],DC50,[5],< 0.05 µM
same,Dmax,[6],> 71%
"Cc1ncsc1-c1ccc([C@H](NC(=O)[C@@H]2C[C@@H](O)CN2C(=O)[C@@H](NC(=O)CN2CCN(CCCc3ccc(C(=O)N[C@H]4C(C)(C)[C@H](Oc5ccc(C#N)c(C(F)(F)F)c5)C4(C)C)cc3)CC2)C(C)(C)C)C2COC2)cc1 [Example 712, (2S,4R)-1-((S)-2-(2-(4-(3-(4-(((1r,3r)-3-(4-cyano-3-(trifluoromethyl)phenoxy)-2,2,4,4-tetramethylcyclobutyl)carbamoyl)phenyl)propy)piperazin-1-yl)acetamido)-3,3-dimethylbutanoyl)-4-hydroxy-N-((R)-(4-(4-methylthiazol-5-yl)phenyl)(oxetan-3-yl)methyl)pyrrolidine-2-carboxamide]",DC50,[1],> 0.501 µM
same,Dmax,"VCaP, read-out: VCaP Dmax (%)",< 25%
Cc1ncsc1-c1ccc(CNC(=O)[C@@H]2C[C@@H](O)CN2C(=O)[C@@H](NC(=O)COCCC2CCN(CCOc3ccc(N4C(=S)N(c5ccc(C#N)c(C(F)(F)F)c5)C(=O)C4(C)C)cc3)CC2)C(C)(C)C)cc1 [Example 318],Dmax,"VCaP, read-out: VCaP Dmax (%)",26 to 50%
same,DC50,read-out: VCaP DC50; VCaP cells; Table 34,0.051 to 0.5 µM
